Assays:
Assay in all cases: biochemical
[1] = target: T1, panel of 374 wild-type kinases (Homo sapiens, UniProt O43781); details: read-out: % Enzyme Activity (relative to DMSO controls), DYRK3
T1 construct: purchased Reaction Biology Corporation
T1 sequence (O43781 1-588): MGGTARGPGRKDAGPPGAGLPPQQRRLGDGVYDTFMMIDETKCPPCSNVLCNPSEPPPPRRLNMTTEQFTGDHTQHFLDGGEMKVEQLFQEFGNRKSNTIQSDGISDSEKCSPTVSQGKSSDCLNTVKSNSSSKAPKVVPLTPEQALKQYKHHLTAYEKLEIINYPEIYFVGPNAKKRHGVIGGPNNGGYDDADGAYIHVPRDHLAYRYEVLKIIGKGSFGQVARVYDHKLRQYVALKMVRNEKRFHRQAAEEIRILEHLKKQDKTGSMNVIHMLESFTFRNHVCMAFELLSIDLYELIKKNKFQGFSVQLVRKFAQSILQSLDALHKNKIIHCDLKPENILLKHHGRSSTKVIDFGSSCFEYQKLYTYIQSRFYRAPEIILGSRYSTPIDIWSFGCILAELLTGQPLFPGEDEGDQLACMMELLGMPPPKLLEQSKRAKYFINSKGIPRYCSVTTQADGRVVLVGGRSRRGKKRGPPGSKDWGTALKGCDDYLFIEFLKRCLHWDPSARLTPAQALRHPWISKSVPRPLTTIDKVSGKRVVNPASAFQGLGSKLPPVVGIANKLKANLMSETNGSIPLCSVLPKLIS

[2] = target: T2, panel of 374 wild-type kinases (Homo sapiens, UniProt P10721); details: read-out: % Enzyme Activity (relative to DMSO controls), c-Kit
T2 construct: purchased Reaction Biology Corporation

[3] = target: T3, panel of 374 wild-type kinases (Homo sapiens, UniProt P49336); details: read-out: % Enzyme Activity (relative to DMSO controls), CDK8/cyclin C
T3 construct: purchased Reaction Biology Corporation

[4] = target: T4, panel of 374 wild-type kinases (Homo sapiens, UniProt P49674); details: read-out: % Enzyme Activity (relative to DMSO controls), CK1epsilon
T4 construct: purchased Reaction Biology Corporation

[5] = target: T5, panel of 374 wild-type kinases (Homo sapiens, UniProt Q05397); details: read-out: % Enzyme Activity (relative to DMSO controls), FAK/PTK2
T5 construct: purchased Reaction Biology Corporation

[6] = target: T6, panel of 374 wild-type kinases (Homo sapiens, UniProt Q16539); details: P38a/MAPK14, read-out: % Enzyme Activity (relative to DMSO controls)
T6 construct: purchased Reaction Biology Corporation

[7] = target: T7, panel of 374 wild-type kinases (Homo sapiens, UniProt Q6XUX3); details: read-out: % Enzyme Activity (relative to DMSO controls), kinase RIPK5
T7 construct: purchased Reaction Biology Corporation
T7 sequence (Q6XUX3 1-929): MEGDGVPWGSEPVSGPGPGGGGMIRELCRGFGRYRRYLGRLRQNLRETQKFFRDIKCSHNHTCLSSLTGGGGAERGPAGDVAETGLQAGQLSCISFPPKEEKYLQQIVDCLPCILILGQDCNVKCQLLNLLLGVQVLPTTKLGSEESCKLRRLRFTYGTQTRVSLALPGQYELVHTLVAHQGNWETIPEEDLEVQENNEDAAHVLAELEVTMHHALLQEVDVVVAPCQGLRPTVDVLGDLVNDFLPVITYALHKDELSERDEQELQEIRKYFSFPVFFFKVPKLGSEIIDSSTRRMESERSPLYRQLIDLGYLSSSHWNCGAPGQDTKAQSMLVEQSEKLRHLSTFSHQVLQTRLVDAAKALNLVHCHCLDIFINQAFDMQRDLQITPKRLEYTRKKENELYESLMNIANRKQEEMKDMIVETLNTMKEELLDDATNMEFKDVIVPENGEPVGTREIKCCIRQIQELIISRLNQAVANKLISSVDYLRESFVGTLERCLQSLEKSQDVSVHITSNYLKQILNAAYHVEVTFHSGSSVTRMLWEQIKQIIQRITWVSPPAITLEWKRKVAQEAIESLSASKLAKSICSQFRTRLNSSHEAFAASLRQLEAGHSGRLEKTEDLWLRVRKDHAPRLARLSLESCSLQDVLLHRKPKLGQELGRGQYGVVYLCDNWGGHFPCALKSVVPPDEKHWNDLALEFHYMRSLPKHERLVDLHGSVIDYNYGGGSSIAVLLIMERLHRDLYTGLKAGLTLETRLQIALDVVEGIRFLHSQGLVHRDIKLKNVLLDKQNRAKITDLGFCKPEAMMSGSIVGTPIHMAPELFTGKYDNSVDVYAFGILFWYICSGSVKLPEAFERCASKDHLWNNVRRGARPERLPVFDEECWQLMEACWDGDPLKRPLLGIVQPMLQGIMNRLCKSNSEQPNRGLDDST

[8] = target: T8, panel of 374 wild-type kinases (Homo sapiens, UniProt Q9BXA6); details: read-out: % Enzyme Activity (relative to DMSO controls), kinase SSTK/TSSK6
T8 construct: purchased Reaction Biology Corporation

[9] = target: T9, panel of 374 wild-type kinases (Homo sapiens, UniProt Q9UPZ9); details: read-out: % Enzyme Activity (relative to DMSO controls), LCK2/ICK
T9 construct: purchased Reaction Biology Corporation
T9 sequence (Q9UPZ9 1-632): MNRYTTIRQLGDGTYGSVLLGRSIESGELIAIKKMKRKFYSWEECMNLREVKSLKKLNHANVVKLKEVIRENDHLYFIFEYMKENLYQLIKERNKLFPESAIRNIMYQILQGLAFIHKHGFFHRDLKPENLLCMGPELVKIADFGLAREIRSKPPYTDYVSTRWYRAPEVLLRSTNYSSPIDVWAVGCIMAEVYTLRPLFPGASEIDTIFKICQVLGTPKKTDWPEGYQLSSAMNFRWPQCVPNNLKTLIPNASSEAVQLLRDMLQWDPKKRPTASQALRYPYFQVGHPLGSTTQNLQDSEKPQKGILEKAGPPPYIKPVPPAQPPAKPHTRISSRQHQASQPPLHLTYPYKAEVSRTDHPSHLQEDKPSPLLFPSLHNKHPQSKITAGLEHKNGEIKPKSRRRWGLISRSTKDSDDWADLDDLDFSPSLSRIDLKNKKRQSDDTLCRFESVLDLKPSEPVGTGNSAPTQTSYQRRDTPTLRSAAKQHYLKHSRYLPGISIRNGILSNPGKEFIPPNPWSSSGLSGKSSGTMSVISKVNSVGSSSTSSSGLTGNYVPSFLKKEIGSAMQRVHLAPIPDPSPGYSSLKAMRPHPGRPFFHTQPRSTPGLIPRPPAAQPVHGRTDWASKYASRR

T2 sequence (P10721 26-976): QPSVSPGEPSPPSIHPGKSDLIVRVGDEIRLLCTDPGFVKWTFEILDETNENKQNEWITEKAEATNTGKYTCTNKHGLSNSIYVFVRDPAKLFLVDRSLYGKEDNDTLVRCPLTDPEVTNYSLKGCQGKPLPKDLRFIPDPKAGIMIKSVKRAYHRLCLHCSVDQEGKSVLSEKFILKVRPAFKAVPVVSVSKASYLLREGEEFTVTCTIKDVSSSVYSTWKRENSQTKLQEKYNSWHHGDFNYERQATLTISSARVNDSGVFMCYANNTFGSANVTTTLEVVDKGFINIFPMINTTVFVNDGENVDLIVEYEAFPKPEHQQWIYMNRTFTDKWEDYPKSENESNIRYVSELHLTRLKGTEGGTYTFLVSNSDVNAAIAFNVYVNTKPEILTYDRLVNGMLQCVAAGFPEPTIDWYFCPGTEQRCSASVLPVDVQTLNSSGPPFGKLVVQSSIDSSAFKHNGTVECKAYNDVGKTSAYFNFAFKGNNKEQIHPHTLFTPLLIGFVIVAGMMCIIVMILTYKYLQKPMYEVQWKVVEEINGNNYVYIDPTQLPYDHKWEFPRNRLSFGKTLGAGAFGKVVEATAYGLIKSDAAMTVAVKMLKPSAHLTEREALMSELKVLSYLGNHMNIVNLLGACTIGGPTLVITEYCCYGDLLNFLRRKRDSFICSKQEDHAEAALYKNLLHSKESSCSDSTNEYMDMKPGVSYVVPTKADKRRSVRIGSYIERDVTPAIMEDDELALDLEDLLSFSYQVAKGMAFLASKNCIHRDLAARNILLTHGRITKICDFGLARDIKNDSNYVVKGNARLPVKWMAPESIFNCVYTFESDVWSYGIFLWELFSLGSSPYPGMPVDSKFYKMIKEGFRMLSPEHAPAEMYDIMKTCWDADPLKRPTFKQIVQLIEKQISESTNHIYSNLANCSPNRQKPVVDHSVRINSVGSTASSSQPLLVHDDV
T6 sequence (Q16539 whole entry): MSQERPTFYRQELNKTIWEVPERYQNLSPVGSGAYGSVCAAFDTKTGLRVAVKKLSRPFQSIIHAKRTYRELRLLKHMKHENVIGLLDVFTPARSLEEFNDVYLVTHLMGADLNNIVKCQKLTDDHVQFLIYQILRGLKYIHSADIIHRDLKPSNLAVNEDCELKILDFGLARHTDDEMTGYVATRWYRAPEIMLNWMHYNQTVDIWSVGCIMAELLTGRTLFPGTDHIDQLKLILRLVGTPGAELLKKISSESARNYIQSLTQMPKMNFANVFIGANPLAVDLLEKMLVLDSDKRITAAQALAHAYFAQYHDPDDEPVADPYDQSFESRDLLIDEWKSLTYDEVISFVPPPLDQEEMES
T3 sequence (P49336 whole entry): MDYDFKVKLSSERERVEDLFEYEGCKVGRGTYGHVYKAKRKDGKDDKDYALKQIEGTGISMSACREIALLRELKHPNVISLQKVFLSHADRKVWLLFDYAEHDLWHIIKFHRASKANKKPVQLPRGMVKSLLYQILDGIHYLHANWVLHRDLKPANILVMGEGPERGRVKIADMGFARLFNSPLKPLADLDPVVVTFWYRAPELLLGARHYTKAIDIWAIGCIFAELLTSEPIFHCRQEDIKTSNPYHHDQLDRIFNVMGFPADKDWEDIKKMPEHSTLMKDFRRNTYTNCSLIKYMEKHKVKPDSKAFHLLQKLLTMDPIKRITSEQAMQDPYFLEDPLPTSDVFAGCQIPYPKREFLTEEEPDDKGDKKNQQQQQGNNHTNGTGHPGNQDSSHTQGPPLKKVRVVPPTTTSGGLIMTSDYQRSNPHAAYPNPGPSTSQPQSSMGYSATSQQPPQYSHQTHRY
T8 sequence (Q9BXA6 whole entry): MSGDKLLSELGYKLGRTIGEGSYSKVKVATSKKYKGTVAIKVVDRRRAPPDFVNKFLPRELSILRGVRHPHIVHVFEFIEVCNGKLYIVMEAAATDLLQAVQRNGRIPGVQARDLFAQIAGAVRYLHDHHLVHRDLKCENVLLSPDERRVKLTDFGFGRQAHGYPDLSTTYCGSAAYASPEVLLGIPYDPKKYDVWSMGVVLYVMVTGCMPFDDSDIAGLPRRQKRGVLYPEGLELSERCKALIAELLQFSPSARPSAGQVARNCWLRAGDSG
T5 sequence (Q05397 whole entry): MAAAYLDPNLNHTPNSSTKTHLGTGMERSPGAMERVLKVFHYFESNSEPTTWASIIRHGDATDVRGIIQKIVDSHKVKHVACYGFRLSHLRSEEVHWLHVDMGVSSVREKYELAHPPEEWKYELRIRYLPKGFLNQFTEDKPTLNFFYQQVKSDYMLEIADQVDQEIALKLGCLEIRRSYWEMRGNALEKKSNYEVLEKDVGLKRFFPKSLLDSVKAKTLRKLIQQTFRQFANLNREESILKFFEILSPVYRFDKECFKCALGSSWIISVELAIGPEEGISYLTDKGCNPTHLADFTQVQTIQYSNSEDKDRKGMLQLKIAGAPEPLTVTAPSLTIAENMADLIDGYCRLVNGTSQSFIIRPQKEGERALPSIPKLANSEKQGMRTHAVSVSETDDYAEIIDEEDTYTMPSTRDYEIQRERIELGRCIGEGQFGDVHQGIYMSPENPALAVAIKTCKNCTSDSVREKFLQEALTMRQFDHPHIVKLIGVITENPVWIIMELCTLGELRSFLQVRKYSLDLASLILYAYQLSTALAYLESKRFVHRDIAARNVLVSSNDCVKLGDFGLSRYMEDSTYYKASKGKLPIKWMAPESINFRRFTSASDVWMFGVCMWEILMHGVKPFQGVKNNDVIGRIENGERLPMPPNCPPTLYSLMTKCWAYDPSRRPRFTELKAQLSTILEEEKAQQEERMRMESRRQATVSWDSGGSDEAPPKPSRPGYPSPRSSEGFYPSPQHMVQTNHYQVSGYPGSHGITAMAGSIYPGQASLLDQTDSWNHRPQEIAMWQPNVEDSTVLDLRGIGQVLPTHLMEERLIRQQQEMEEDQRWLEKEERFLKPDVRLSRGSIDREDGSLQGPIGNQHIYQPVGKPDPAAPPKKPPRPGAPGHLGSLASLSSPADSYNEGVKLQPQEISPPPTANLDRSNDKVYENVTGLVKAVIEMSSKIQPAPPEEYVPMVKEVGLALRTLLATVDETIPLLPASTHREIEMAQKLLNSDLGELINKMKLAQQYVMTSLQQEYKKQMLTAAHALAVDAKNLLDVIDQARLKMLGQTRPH
T4 sequence (P49674 whole entry): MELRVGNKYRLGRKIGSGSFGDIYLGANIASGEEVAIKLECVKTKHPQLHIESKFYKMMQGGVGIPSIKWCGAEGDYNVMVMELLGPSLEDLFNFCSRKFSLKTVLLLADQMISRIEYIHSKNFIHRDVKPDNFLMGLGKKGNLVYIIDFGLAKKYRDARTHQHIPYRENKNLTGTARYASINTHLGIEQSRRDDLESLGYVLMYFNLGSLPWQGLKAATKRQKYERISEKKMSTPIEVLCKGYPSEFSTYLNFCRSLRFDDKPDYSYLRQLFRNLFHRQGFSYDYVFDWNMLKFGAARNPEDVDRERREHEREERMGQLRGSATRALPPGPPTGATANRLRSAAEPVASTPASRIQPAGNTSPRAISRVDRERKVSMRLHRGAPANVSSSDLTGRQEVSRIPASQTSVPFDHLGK

For Cc1sc(C(=O)NC2COC2)cc1-n1cc(NC(=O)Nc2c(F)cccc2Cl)cn1 [Compound 27, 4-(4-(3-(2-chloro-6-fluorophenyl)ureido)-1H-pyrazol-1-yl)-5-methyl-N-(oxetan-3-yl)thiophene-2-carboxamide], which remaining activity at 10 µM ([1]; 10 uM) is on record?
The remaining activity at 10 µM was 101%.

What about the remaining activity at 10 µM ([2]; 10 uM) of the same compound?
Its remaining activity at 10 µM is 64.4%.

And the remaining activity at 10 µM ([3]; 10 uM)?
The remaining activity at 10 µM was 92.7%.

And the remaining activity at 10 µM ([4]; 10 uM)?
Its remaining activity at 10 µM is 97.9%.

What about the remaining activity at 10 µM ([5]; 10 uM) of the same compound?
The remaining activity at 10 µM was 104%.

What about the remaining activity at 10 µM ([6]; 10 uM) of the same compound?
The remaining activity at 10 µM was 93.2%.

And the remaining activity at 10 µM ([7]; 10 uM)?
The remaining activity at 10 µM was 96.6%.

What about the remaining activity at 10 µM ([8]; 10 uM) of the same compound?
Its remaining activity at 10 µM is 94%.

What about the remaining activity at 10 µM ([9]; 10 uM) of the same compound?
Its remaining activity at 10 µM is 100%.

How did the remaining activity at 5 µM [1] turn out when O=C(Nc1cnn(-c2csc(C(=O)NC3COC3)c2)c1)Nc1c(F)cccc1Cl [Compound 25, 4-(4-(3-(2-chloro-6-fluorophenyl)ureido)-1H-pyrazol-1-yl)-N-(oxetan-3-yl)thiophene-2-carboxamide] was run?
The remaining activity at 5 µM was 99.2%.

What about the remaining activity at 5 µM [2] of the same compound?
Its remaining activity at 5 µM is 94%.

What about the remaining activity at 5 µM [3] of the same compound?
Its remaining activity at 5 µM is 99%.

And the remaining activity at 5 µM [4]?
Its remaining activity at 5 µM is 88.6%.

And the remaining activity at 5 µM [5]?
The remaining activity at 5 µM was 89%.

What about the remaining activity at 5 µM [6] of the same compound?
Its remaining activity at 5 µM is 105%.

What about the remaining activity at 5 µM [7] of the same compound?
Its remaining activity at 5 µM is 95.5%.

And the remaining activity at 5 µM [8]?
The remaining activity at 5 µM was 103%.

What about the remaining activity at 5 µM [9] of the same compound?
Its remaining activity at 5 µM is 101%.

For O=C(Nc1cnn(-c2csc(C(=O)NC3COC3)c2)c1)Nc1ccccc1Cl [Compound 17, 4-(4-(3-(2-chlorophenyl)ureido)-1H-pyrazol-1-yl)-N-(oxetan-3-yl)thiophene-2-carboxamide], which remaining activity at 5 µM [1] is on record?
The remaining activity at 5 µM was 93.3%.

What about the remaining activity at 5 µM [2] of the same compound?
The remaining activity at 5 µM was 89.2%.

And the remaining activity at 5 µM [3]?
The remaining activity at 5 µM was 101%.

And the remaining activity at 5 µM [4]?
The remaining activity at 5 µM was 89.6%.

What about the remaining activity at 5 µM [5] of the same compound?
The remaining activity at 5 µM was 95.7%.

And the remaining activity at 5 µM [6]?
The remaining activity at 5 µM was 142%.

What about the remaining activity at 5 µM [7] of the same compound?
Its remaining activity at 5 µM is 102%.

What about the remaining activity at 5 µM [8] of the same compound?
The remaining activity at 5 µM was 103%.

And the remaining activity at 5 µM [9]?
Its remaining activity at 5 µM is 112%.
